According to PMC5892457, “Characterisation of novel biomass degradation enzymes from the genome of Cellulomonas fimi” (Enzyme and Microbial Technology, 2018):

Target: T1, AfsA (Cellulomonas fimi, UniProt F4H166)
T1 construct: gene Celf_3321; full ORF as BioBrick, E. coli JM109 crude lysate, untagged
T1 sequence (F4H166 1-506): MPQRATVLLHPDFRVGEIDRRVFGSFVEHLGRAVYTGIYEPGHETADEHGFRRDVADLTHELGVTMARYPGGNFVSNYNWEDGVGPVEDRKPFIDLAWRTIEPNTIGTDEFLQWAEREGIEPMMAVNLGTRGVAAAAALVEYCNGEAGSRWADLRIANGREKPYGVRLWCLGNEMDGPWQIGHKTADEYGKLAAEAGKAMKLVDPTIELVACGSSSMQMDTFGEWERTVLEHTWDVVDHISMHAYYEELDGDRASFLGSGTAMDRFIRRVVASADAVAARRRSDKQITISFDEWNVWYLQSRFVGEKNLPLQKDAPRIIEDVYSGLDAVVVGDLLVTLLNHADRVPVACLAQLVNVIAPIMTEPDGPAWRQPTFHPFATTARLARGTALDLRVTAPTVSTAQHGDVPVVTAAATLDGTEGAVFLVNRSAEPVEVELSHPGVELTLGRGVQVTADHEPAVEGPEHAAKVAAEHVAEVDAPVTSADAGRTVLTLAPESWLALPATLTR
Experiment: nitrophenol release at […] nm
Format: biochemical
Settings: pH 5.0, 37 °C, E. coli lysate

## O=[N+]([O-])c1ccccc1O[C@@H]1OC[C@@H](O)[C@H](O)[C@H]1O [ONPX, 2-nitrophenyl β-D-xylopyranoside]
  nitrophenol release at 405 nm: AfsA at this temperature and pH being more active with ONPX than PNPA

## O=[N+]([O-])c1ccc(O[C@@H]2O[C@@H](CO)[C@H](O)[C@H]2O)cc1 [PNPA, 4-nitrophenyl α-L-arabinofuranoside]
  nitrophenol release at 405 nm: AfsA and AfsB have both arabinofuranoisdase and xylosidase activities
